Assay results reported in ChEMBL document CHEMBL1201862, “PubChem BioAssay data set” (2004).
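Cultured in 96-well plates, cells were exposed to test compound for 48 hours across five concentrations. GI50 is the concentration that inhibits growth by half.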 Active and inactive are the calls of the source. Rule as the data show it: active = GI50 up to about 1.1 µM and inactive = higher.

Columns and labels:
Test in all cases: NCI anticancer screen, dose series, 48 h
[1] = tested on: RXF 393
[2] = tested on: UACC-257
[3] = tested on: UO-31
[4] = tested on: SN12C
[5] = tested on: MOLT-4
[6] = tested on: KM12
[7] = tested on: MDA-MB-231
[8] = tested on: MCF7
[9] = tested on: T47D
[10] = tested on: IGROV-1
[11] = tested on: SF-539
[12] = tested on: 786-0
[13] = tested on: OVCAR-8
[14] = tested on: EKVX
[15] = tested on: NCI-H460
[16] = tested on: NCI-H226
[17] = tested on: HL-60
[18] = tested on: SR
[19] = tested on: MDA-N

SMILES: O=C(Cc1csc(N/N=C2\C(=O)Nc3ccccc32)n1)Nc1ccccc1
- GI50 [1]: 62.7 µM (inactive)
- GI50 [2]: 25 µM (inactive)
- GI50 [3]: 25.3 µM (inactive)
- GI50 [4]: 36.6 µM (inactive)
- GI50 [5]: 42.5 µM (inactive)
- GI50 [6]: 29.2 µM (inactive)
- GI50 [7]: 28.8 µM (inactive)
- GI50 [8]: 54.3 µM (inactive)
- GI50 [9]: 28.4 µM (inactive)
- GI50 [10]: 11.9 µM (inactive)
- GI50 [11]: 26.4 µM (inactive)
- GI50 [12]: 17.7 µM (inactive)
- GI50 [13]: 21.1 µM (inactive)
- GI50 [14]: 19.9 µM (inactive)
- GI50 [15]: 31.6 µM (inactive)
- GI50 [16]: 10 µM (inactive)
- GI50 [17]: 37.1 µM (inactive)

SMILES: CSC1CC2C(CC1(C)SC)C2(C)C (stereo not drawn)
- GI50 [1]: 56.5 µM (inactive)
- GI50 [2]: 29.9 µM (inactive)
- GI50 [3]: 19.9 µM (inactive)
- GI50 [18]: 30.8 µM (inactive)
- GI50 [5]: 22.6 µM (inactive)
- GI50 [6]: 48.2 µM (inactive)
- GI50 [10]: 42.8 µM (inactive)
- GI50 [11]: > 100 µM (inactive)
- GI50 [12]: 64.9 µM (inactive)
- GI50 [13]: 39.5 µM (inactive)
- GI50 [14]: 30.2 µM (inactive)
- GI50 [15]: 23.9 µM (inactive)
- GI50 [16]: 24.7 µM (inactive)
- GI50 [17]: 20.2 µM (inactive)

SMILES: CC(=O)OC1=C(c2ccccc2)S(=O)(=O)c2ccccc21
- GI50 [1]: 64 µM (inactive)
- GI50 [2]: > 100 µM (inactive)
- GI50 [3]: > 100 µM (inactive)
- GI50 [18]: > 100 µM (inactive)
- GI50 [5]: > 100 µM (inactive)
- GI50 [6]: > 100 µM (inactive)
- GI50 [7]: > 100 µM (inactive)
- GI50 [8]: > 100 µM (inactive)
- GI50 [9]: > 100 µM (inactive)
- GI50 [10]: > 100 µM (inactive)
- GI50 [11]: > 100 µM (inactive)
- GI50 [12]: > 100 µM (inactive)
- GI50 [13]: > 100 µM (inactive)
- GI50 [14]: > 100 µM (inactive)
- GI50 [15]: > 100 µM (inactive)
- GI50 [16]: > 100 µM (inactive)
- GI50 [17]: > 100 µM (inactive)

SMILES: COC1(OC)N=C(N)C2(C#N)C(C)CC(=O)N(N(C)C)C12C#N (stereo not drawn)
- GI50 [1]: > 100 µM (inactive)
- GI50 [2]: > 100 µM (inactive)
- GI50 [3]: > 100 µM (inactive)
- GI50 [18]: > 100 µM (inactive)
- GI50 [4]: > 100 µM (inactive)
- GI50 [5]: > 100 µM (inactive)
- GI50 [6]: > 100 µM (inactive)
- GI50 [7]: > 100 µM (inactive)
- GI50 [8]: > 100 µM (inactive)
- GI50 [9]: > 100 µM (inactive)
- GI50 [10]: > 100 µM (inactive)
- GI50 [11]: > 100 µM (inactive)
- GI50 [12]: > 100 µM (inactive)
- GI50 [13]: > 100 µM (inactive)
- GI50 [14]: > 100 µM (inactive)
- GI50 [16]: > 100 µM (inactive)
- GI50 [17]: > 100 µM (inactive)

SMILES: CCC(C)[C@H](NC(=O)[C@H](Cc1ccccc1)NC(=O)N(CC)c1ccccc1)C(=O)N[C@@H](CC(C)C)C(=O)OC (stereo partly drawn)
- GI50 [1]: 74.1 µM (inactive)
- GI50 [19]: 45.1 µM (inactive)
- GI50 [2]: 24.9 µM (inactive)
- GI50 [3]: 24.3 µM (inactive)
- GI50 [4]: 38.6 µM (inactive)
- GI50 [5]: 10.7 µM (inactive)
- GI50 [6]: 22 µM (inactive)
- GI50 [7]: 27.7 µM (inactive)
- GI50 [8]: 25.7 µM (inactive)
- GI50 [9]: 43.5 µM (inactive)
- GI50 [10]: 20.4 µM (inactive)
- GI50 [11]: 24.2 µM (inactive)
- GI50 [12]: 40.6 µM (inactive)
- GI50 [13]: 34 µM (inactive)
- GI50 [14]: 49.3 µM (inactive)
- GI50 [16]: 18 µM (inactive)

SMILES: Cc1ccc(S(=O)(=O)N/N=c2/sc3ccccc3n2C)cc1
- GI50 [1]: > 100 µM (inactive)
- GI50 [2]: > 100 µM (inactive)
- GI50 [3]: > 100 µM (inactive)
- GI50 [18]: > 100 µM (inactive)
- GI50 [4]: > 100 µM (inactive)
- GI50 [5]: > 100 µM (inactive)
- GI50 [6]: > 100 µM (inactive)
- GI50 [7]: > 100 µM (inactive)
- GI50 [9]: > 100 µM (inactive)
- GI50 [10]: > 100 µM (inactive)
- GI50 [11]: > 100 µM (inactive)
- GI50 [12]: > 100 µM (inactive)
- GI50 [13]: > 100 µM (inactive)
- GI50 [14]: > 100 µM (inactive)
- GI50 [15]: > 100 µM (inactive)
- GI50 [16]: > 100 µM (inactive)
- GI50 [17]: > 100 µM (inactive)

SMILES: Cn1ccnc1Oc1ccc(Cl)cc1
- GI50 [1]: 16.9 µM (inactive)
- GI50 [2]: 9.75 µM (inactive)
- GI50 [3]: 11.7 µM (inactive)
- GI50 [4]: 13.6 µM (inactive)
- GI50 [5]: 2.38 µM (inactive)
- GI50 [7]: 14.8 µM (inactive)
- GI50 [8]: 12 µM (inactive)
- GI50 [9]: 2.18 µM (inactive)
- GI50 [11]: 11.9 µM (inactive)
- GI50 [12]: 11.5 µM (inactive)
- GI50 [13]: 7.69 µM (inactive)
- GI50 [14]: 19.8 µM (inactive)
- GI50 [15]: 30.3 µM (inactive)
- GI50 [16]: 13 µM (inactive)
- GI50 [17]: 0.631 µM (active)

SMILES: O=c1[nH]nc(Cc2ccc(Cl)cc2)n1Nc1ccccc1
- GI50 [19]: > 100 µM (inactive)
- GI50 [2]: > 100 µM (inactive)
- GI50 [3]: > 100 µM (inactive)
- GI50 [4]: > 100 µM (inactive)
- GI50 [5]: > 100 µM (inactive)
- GI50 [6]: > 100 µM (inactive)
- GI50 [7]: > 100 µM (inactive)
- GI50 [8]: > 100 µM (inactive)
- GI50 [9]: > 100 µM (inactive)
- GI50 [10]: > 100 µM (inactive)
- GI50 [11]: 80 µM (inactive)
- GI50 [12]: 73.6 µM (inactive)
- GI50 [13]: > 100 µM (inactive)
- GI50 [14]: > 100 µM (inactive)
- GI50 [15]: > 100 µM (inactive)
- GI50 [16]: > 100 µM (inactive)

SMILES: C[C@@H]1CCC2C(C)(C)C(/C=C\C=O)C3(C)OC213 (stereo partly drawn)
- GI50 [1]: 33.3 µM (inactive)
- GI50 [19]: 26 µM (inactive)
- GI50 [2]: 45.8 µM (inactive)
- GI50 [3]: 52.5 µM (inactive)
- GI50 [5]: 31.8 µM (inactive)
- GI50 [6]: 36.1 µM (inactive)
- GI50 [7]: 49.2 µM (inactive)
- GI50 [8]: 40.6 µM (inactive)
- GI50 [10]: 24.6 µM (inactive)
- GI50 [12]: 28.8 µM (inactive)
- GI50 [13]: 20.2 µM (inactive)
- GI50 [14]: 37.8 µM (inactive)
- GI50 [15]: 42 µM (inactive)

SMILES: CCOC(=O)c1nnsc1N/N=C\c1ccc([N+](=O)[O-])cc1
- GI50 [1]: > 100 µM (inactive)
- GI50 [19]: > 100 µM (inactive)
- GI50 [2]: > 100 µM (inactive)
- GI50 [3]: > 100 µM (inactive)
- GI50 [4]: > 100 µM (inactive)
- GI50 [5]: > 100 µM (inactive)
- GI50 [6]: > 100 µM (inactive)
- GI50 [7]: 79.8 µM (inactive)
- GI50 [8]: > 100 µM (inactive)
- GI50 [9]: > 100 µM (inactive)
- GI50 [10]: > 100 µM (inactive)
- GI50 [12]: 80 µM (inactive)
- GI50 [13]: 54.7 µM (inactive)
- GI50 [14]: > 100 µM (inactive)
- GI50 [15]: > 100 µM (inactive)
- GI50 [16]: > 100 µM (inactive)

SMILES: COc1ccc([S+]([O-])Cc2cc(OC)c(OC)c(OC)c2)cc1 (stereo not drawn)
- GI50 [1]: 29.2 µM (inactive)
- GI50 [2]: > 100 µM (inactive)
- GI50 [3]: > 100 µM (inactive)
- GI50 [18]: 37.8 µM (inactive)
- GI50 [4]: 54.8 µM (inactive)
- GI50 [5]: 27 µM (inactive)
- GI50 [6]: 40.8 µM (inactive)
- GI50 [7]: 84.5 µM (inactive)
- GI50 [8]: 39.5 µM (inactive)
- GI50 [9]: > 100 µM (inactive)
- GI50 [10]: > 100 µM (inactive)
- GI50 [11]: 56.5 µM (inactive)
- GI50 [12]: > 100 µM (inactive)
- GI50 [13]: 62.5 µM (inactive)
- GI50 [14]: > 100 µM (inactive)
- GI50 [15]: 33.2 µM (inactive)
- GI50 [16]: > 100 µM (inactive)
- GI50 [17]: > 10 µM (inactive)

SMILES: CCN1CCCC(Nc2cc(C)nc(NC(=N)Nc3ccc(Cl)c(Cl)c3)n2)C1 (stereo not drawn)
- GI50 [19]: 1.67 µM (inactive)
- GI50 [3]: 0.982 µM (active)
- GI50 [18]: 1.2 µM (inactive)
- GI50 [4]: 2.58 µM (inactive)
- GI50 [5]: 0.658 µM (active)
- GI50 [6]: 1.85 µM (inactive)
- GI50 [7]: 1.62 µM (inactive)
- GI50 [8]: 1.79 µM (inactive)
- GI50 [10]: 1.38 µM (inactive)
- GI50 [11]: 1.88 µM (inactive)
- GI50 [12]: 1.54 µM (inactive)
- GI50 [14]: 2.86 µM (inactive)
- GI50 [15]: 1.26 µM (inactive)
- GI50 [17]: 0.216 µM (active)

SMILES: C=C1c2nc3ccccc3n2C=C(c2ccccc2)N1c1ccc(OC)cc1
- GI50 [1]: 11.7 µM (inactive)
- GI50 [19]: 49.9 µM (inactive)
- GI50 [2]: 31.8 µM (inactive)
- GI50 [3]: 4.52 µM (inactive)
- GI50 [18]: 17.7 µM (inactive)
- GI50 [4]: 65.3 µM (inactive)
- GI50 [5]: 18.9 µM (inactive)
- GI50 [6]: 11.4 µM (inactive)
- GI50 [7]: 40.2 µM (inactive)
- GI50 [8]: 6.81 µM (inactive)
- GI50 [10]: 11 µM (inactive)
- GI50 [11]: 14 µM (inactive)
- GI50 [12]: 19.5 µM (inactive)
- GI50 [13]: 13.2 µM (inactive)
- GI50 [14]: 23.9 µM (inactive)
- GI50 [15]: 11.7 µM (inactive)
- GI50 [16]: 11 µM (inactive)
- GI50 [17]: 29.8 µM (inactive)
